We go through 1 compound from patent publication US20250268871A1, “NEW CRYSTAL FORM OF NITROGEN-CONTAINING TRICYCLIC COMPOUND AND USE THEREOF” (SUNSHINE LAKE PHARMA CO., LTD., priority 2021, published 2025).

A short description of data set [1]: Stability experiment (high-temperature, high-humidity, photostability). Format: physicochemical. As for the experimental part:
(1) High-temperature test: A batch of the test sample was taken and put into a flat weighing bottle, divided into ≤5 mm thick thin layer. The sample was placed at 60° C. for 30 days. The sample was then sampled at day 5, day 13 and day 30, and the change of the sample's color was observed. The purity of the sample was detected by HPLC.
(2) High-humidity test: A batch of the test sample was taken and put into a flat weighing bottle, divided into ≤5 mm thick thin layer. The sample was placed at 25° C. and RH for 90%±5% for 30 days. The sample wad sampled at day 5, day 13 and day 30, and the change of the sample's color was observed. The purity of the sample was detected by HPLC.
(3) Photostability test: A batch of the test sample was taken into a flat weighing bottle, divided into ≤5 mm thick thin layer. The sample was placed in an opened light box (with UV) at the illuminance 4500+5001x, UV light ≥0.7w/m2 for 30 days. The sample was then sampled at day 5, day 13 and day 30, and the change of the sample's color was observed. The purity of the sample was detected by HPLC.

Data set [2] can be described thus: Pharmacokinetic experiment, oral capsules in Beagle dogs. Format: in vivo. The settings on record: dog, plasma, male Beagle dogs, 5 mg/kg. The protocol: The crystal form of the compound having Formula (I) was filled into capsules, which were used for oral administration.
Three male Beagle dogs weighing 8-12 kg were orally administered with capsules containing the test sample at a dose of 5 mg/kg, and blood samples were taken at time points of 0.25 h, 0.5 h, 1.0 h, 2.0 h, 4.0 h, 6.0 h, 8.0 h and 24 h. Standard curve was plotted based on concentrations of the samples in a suitable range, the concentration of the test sample in the plasma sample was measured and quantified by AB SCIEX API4000 LC-MS/MS at MRM mode. Pharmacokinetic parameters were calculated according to drug concentration-time curve using a noncompartmental method by WinNonLin 6.3 software.

Data set [3] in a line: Hygroscopicity experiment (dynamic vapor sorption). As to conditions: relative humidity of 80%, criterion of hygroscopic weight gain. Format: physicochemical. The protocol:
The description of the hygroscopic characteristics and the definition of the hygroscopic weight gain (Appendix 9103 of Chinese Pharmacopoeia 2020 Edition, Guidelines for Drug Hygroscopicity Tests, experimental conditions: 25° C.±1° C., 80%+2% relative humidity) are described in the table below:
The hygroscopicity of the present invention is measured using the DVS INT-Std dynamic moisture and gas adsorption analyzer of the Surface Measurement Systems Company in UK. The humidity test range was 0%-95%, the air flow was 200 mL/min, the temperature was 25° C., test point: take one test point per […] 5% humidity.
An appropriate amount of the test sample was taken and the hygroscopicity of the test sample was tested by dynamic moisture adsorption device. It can be seen from FIG. 4 that the weight gain of the crystal form J according to the present invention is more than 0.2% but less than 2% after equilibrium under the condition of a relative humidity of 80%. […] Therefore, the crystal form J of the invention is not susceptible to deliquescent under the influence of high humidity, which is convenient for the long-term storage of the medicine.

Molecules are shown by their SMILES.

Consider `O=C(O)c1ccc2c(c1)Oc1ccc(OCc3c(-c4c(Cl)cccc4Cl)noc3C3CC3)nc1C1(CC1)C2` [crystal form J, 2-((5-cyclopropyl-3-(2,6-dichlorophenyl)isoxazol-4-yl)methoxy)-10H-spiro[benzo[6,7]oxepino[3,2-b]pyridine-11,1′-cyclopropane]-7-carboxylic acid], for which the “change in appearance and chemical purity (HPLC)” value in data set [1] (60° C., 25° C. and RH 90%±5%, light box with UV, 30 days, sampled at day 5, 13, 30) is “no obvious changes in the appearance and chemical purity”. Also, in data set [1] (high temperature, high humidity and/or lighting conditions), the crystal structure stability entry is listed as “remains basically unchanged”. For the same compound, in data set [2], the AUC(0-t) stood at 885 ng·h/mL, the Cmax amounted to 554 ng/mL and the Tmax is 40 min. In addition, in data set [3], the hygroscopic characteristics entry is “lightly hygroscopic”.
